Data: publication PMC3779320, “Bub3 reads phosphorylated MELT repeats to promote spindle assembly checkpoint signaling” (eLife, 2013)
Square brackets hold non-standard residues; d marks the D form. Peptide text beside a SMILES is read from it. pT = C[C@@H](OP(=O)(O)O)[C@H](N)C(=O)O

How the values were obtained:
Bub3 = target: T1, Bub3 (Saccharomyces cerevisiae, UniProt P26449); assay: ITC binding to Bub3 in the absence of Bub1; conditions: Bub3 without Bub1 compared to the Bub1–Bub3 complex
T1 construct: S. cerevisiae Bub1^289–359 and for full length Bub3; made in house
T1 sequence (P26449 1-341): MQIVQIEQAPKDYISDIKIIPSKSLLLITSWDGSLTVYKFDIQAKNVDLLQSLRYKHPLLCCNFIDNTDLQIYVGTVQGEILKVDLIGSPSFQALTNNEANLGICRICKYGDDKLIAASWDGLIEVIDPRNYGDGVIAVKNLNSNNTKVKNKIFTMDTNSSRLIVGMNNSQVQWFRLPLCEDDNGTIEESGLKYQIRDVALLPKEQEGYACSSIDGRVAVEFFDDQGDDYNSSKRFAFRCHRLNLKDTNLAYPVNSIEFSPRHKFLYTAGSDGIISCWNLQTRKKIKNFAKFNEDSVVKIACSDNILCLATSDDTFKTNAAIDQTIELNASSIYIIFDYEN
Protocol: However, as already anticipated in the Introduction, several lines of evidence indicate that Bub1 contributes to this interaction (Discussion). To test this possibility formally, we measured the binding of purified Bub3 (Figure 1D) to the MELT2^P peptide in the absence of Bub1.
Binding isotherm was measured at 25°C by isothermal titration calorimetry on a MicroCal ITC200 device (GE Healthcare, Piscataway, NJ). All samples were extensively dialysed into fresh GF buffer (20 mM Tris pH7.5, 150 mM NaCl, 1 mM DTE). In each titration, the Bub1^289–359–Bub3 in the cell (at a 30 µM concentration) was titrated with thirty-five 2-µl injections (at 90 s intervals) of the indicated synthetic MELT^P peptides (at a concentration of 400 µM). The injections were continued beyond saturation levels to allow for determination of heats of ligand dilution. Data were fitted by least-square procedures to a single-site binding model using ORIGIN 5.0 software package (MicroCal, Northampton, MA).

[1] = tested on: Bub1^289–359–Bub3^R217A–R239A; assay: ITC binding to Bub1^289–359–Bub3^R217A–R239A double mutant; set-up: species or system Saccharomyces cerevisiae; conditions: 25°C, 20 mM Tris pH7.5, 150 mM NaCl, 1 mM DTE, complex 30 µM in cell, peptide 400 µM
Description: Because the presence of a phosphate on Thr172^Spc105/Knl1 is essential for high-affinity binding of ScBub1^289–359–Bub3 to MELT^P peptides (Figure 1), we concentrated our mutational analysis on two residues that are directly implicated in the recognition of the peptide’s phospho-threonine, Arg217^Bub3 and Arg239^Bub3. Positively charged residues are invariant at these positions of the Bub3 alignment (Figure 2C). We generated single or double alanine mutants of Arg217^Bub3 and Arg239^Bub3 in the context of ScBub1^289–359–Bub3 and tested their binding affinity for the MELT2^P peptide by ITC.
cDNA sequences coding for S. cerevisiae Bub1^289–359 and for full length Bub3 were subcloned in the first and second cassettes of pGEX-6P-2rbs vector ([Ciferri et al., 2005]). In this construct, the cDNA encoding Bub1^289–359 was sub-cloned in frame with the gene encoding GST and a cleavage site for PreScission protease, and was translated from the first ribosome-binding site (rbs). Untagged Bub3 was subcloned downstream of the second rbs in the same vector. Expression was carried out in BL21 DE3 plysS cells in LB medium by auto-induction with 0.3% lactose at 18°C for approximately 16 hr. […]
(§1) Binding isotherm was measured at 25°C by isothermal titration calorimetry on a MicroCal ITC200 device (GE Healthcare, Piscataway, NJ). […]

Bub1^289–359–Bub3 = target: T2, Bub1^289–359–Bub3 (Saccharomyces cerevisiae, UniProt P26449+P41695); assay: ITC binding of MELT peptides to Bub1^289–359–Bub3 (wild type); conditions: 25°C, 20 mM Tris pH7.5, 150 mM NaCl, 1 mM DTE, complex 30 µM in cell, peptide 400 µM
T2 construct: S. cerevisiae Bub1^289–359 and for full length Bub3; GST (N, cleaved yes); made in house; host or cells: E. coli BL21 DE3 plysS
T2 sequence (P26449 1-341): T1 sequence (P26449 1-341)
T2 sequence (P41695 289-359): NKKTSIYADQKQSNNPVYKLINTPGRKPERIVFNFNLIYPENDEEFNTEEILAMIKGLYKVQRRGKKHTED
Description: We generated recombinant ScBub1^289–359–Bub3 (where the Bub1 segment is equivalent to the minimal kinetochore targeting region of human Bub1 [[Krenn et al., 2012]]) by bacterial co-expression and purified it to homogeneity (Figure 1D). To assess whether Bub1–Bub3 binds directly to MELT^P sequences, we tested its ability to bind MELT sequences in quantitative isothermal titration calorimetry (ITC) binding experiments. 19-residue synthetic peptides encompassing the sequences of the second and fourth MELT^P motifs of Spc105/Knl1 (indicated as MELT2 and MELT4, respectively), each flanked by four and eleven residues on the N- and C-terminal ends, respectively, were tested (Figure 1C). […] Thus, ScBub1^289–359–Bub3 is sufficient for the reconstitution of tight interactions with two MELT^P peptides in vitro that recapitulate a salient feature of this interaction, its dependency on phosphorylation.
cDNA sequences coding for S. cerevisiae Bub1^289–359 and for full length Bub3 were subcloned in the first and second cassettes of pGEX-6P-2rbs vector ([Ciferri et al., 2005]). In this construct, the cDNA encoding Bub1^289–359 was sub-cloned in frame with the gene encoding GST and a cleavage site for PreScission protease, and was translated from the first ribosome-binding site (rbs). Untagged Bub3 was subcloned downstream of the second rbs in the same vector. Expression was carried out in BL21 DE3 plysS cells in LB medium by auto-induction with 0.3% lactose at 18°C for approximately 16 hr. Cells were harvested by centrifugation and resuspended in Buffer A (20 mM Tris pH 7.5, 300 mM NaCl, 10% Glycerol, 1 mM DTE, 1 mM EDTA pH 8.0, 1 mM PMSF) typically at a dilution of 3 ml lysis buffer per ml of bacterial pellet. Cells were lysed by sonication, and the lysates were cleared by centrifugation at 75000 × g for 45 min. The resulting clear supernatant was incubated with gentle rotation with 1/50 (vol/vol) of GSH-sepharose slurry (GE Healthcare) for 1–2 hr at 4°C. Beads were washed with 150 vol of Buffer A. To elute the Bub1–Bub3 complex from beads, GST-PreScission protease (0.02 mg/mg of protein target) was added for 16 hr at 4°C. The eluate was concentrated on Amicon Ultra Centrifugal Filters MwCO 3000 (Merck Millipore, Billerica, MA) and further purified by size exclusion chromatography (SEC) on a Superdex 75 16/60 column using GF buffer (20 mM Tris pH 7.5, 150 mM NaCl, 1 mM DTE). The complex eluted in a single peak with apparently stoichiometric amounts of Bub1^289–359 and Bub3 and was subsequently concentrated to ∼10 mg/ml for crystallization or to 2–4 mg/ml for ITC experiments. […]
as §1

CC[C@H](C)[C@H](NC(=O)[C@H](CO)NC(=O)[C@H](CCCNC(=N)N)NC(=O)[C@@H]1CCCN1C(=O)[C@H](Cc1ccccc1)NC(=O)[C@@H](NC(=O)[C@H](CCC(=O)O)NC(=O)[C@@H](NC(=O)[C@H](CCSC)NC(=O)[C@H](CCC(=O)O)NC(=O)[C@H](CCSC)NC(=O)[C@H](CO)NC(=O)[C@@H](NC(=O)[C@@H]1CCCN1C(=O)[C@H](CC(=O)O)NC(C)=O)[C@@H](C)O)[C@@H](C)OP(=O)(O)O)C(C)C)C(=O)N[C@@H](CCCNC(=N)N)C(=O)N[C@@H](CCC(N)=O)C(=O)N[C@@H](CCCCN)C(=O)N[C@@H](CC(N)=O)C(N)=O [MELT2^P] (Ac-DPTSMEM[pT]EVFPRSIRQKN-NH2; N-terminus and C-terminus assumed)
fold reduction in binding affinity (Bub3): 10 fold
binding (in words) [1]: no significant residual binding
binding (in words) (Bub1^289–359–Bub3): no binding
